Source: patent US20220306623A1, “PYRIDYL OR PYRIMIDYL MTOR KINASE INHIBITORS” (GLAXOSMITHKLINE INTELLECTUAL PROPERTY DEVELOPMENT LIMITED, priority 2019, published 2022)
Where two headings read alike, the source gives them in different places.

Molecular target: T1, mTOR (Homo sapiens, UniProt P42345)
T1 construct: capturing of endogenously expressed target proteins from cell extracts by a bead-immobilized capturing ligand; endogenous in cells; host or cells: HuT-78 cells (ECACC 88041901), cell lysate
Experiment: mTOR kinobeads competition-binding assay
Settings: HuT-78 cell lysate
Experimental: The affinity of test compounds for mTOR was determined in the mTOR kinobeads assay. This is a competition-binding assay based on the capturing of endogenously expressed target proteins from cell extracts by a bead-immobilized capturing ligand in the presence of the test compound.
HuT-78 cells (European Collection of Authenticated Cell Cultures, 88041901) were cultured according to vendor's instructions. Frozen cell pellets were homogenized in 3× pellet volumes lysis buffer (50 mM Tris-HCl, 0.4% (v/v) Igepal-CA630, 5% glycerol, 150 mM NaCl, 1.5 mM MgCl2, 25 mM NaF, 1 mM sodium vanadate, 1 mM DTT, pH 7.5, supplemented with EDTA-free protease inhibitor tablet (Roche)). The sample was dispersed using a Dounce homogenizer, kept rotating for 30 min at 4° C., and centrifuged for 10 min at 20000 gat 4° C. The supernatant was centrifuged again for 1 h at 145 000 g. The protein concentration was determined by Bradford assay (BioRad), aliquots were snap frozen in liquid nitrogen and stored at −80° C.
The capturing matrices were generated by derivatizing N-hydroxysuccinimide (NHS) activated Sepharose 4 beads (GE Healthcare) with the functionalized ligands Compound A and Compound C at a ligand density of 5 mM. Remaining NHS-groups were blocked with ethanolamine.
For the mTOR kinobeads assay the matrices were combined in a 1:1 ratio and equilibrated in DP buffer (50 mM Tris-HCl (pH 7.5), 0.4% (v/v) Igepal-CA630, 5% (v/v) glycerol, 150 mM NaCl, 1.5 mM MgCl2, 25 mM NaF, 1 mM Na3VO4, 1 mM dithiothreitol). All steps of the mTOR kinobeads assay were performed at 4° C. or on ice. The cell lysate was diluted with DP buffer to a final concentration of 5 mg/ml and a final detergent concentration of 0.4% (v/v) Igepal-CA630. For the assay 250 μg cell lysate and 2.5 μl capturing matrix per well (final assay volume: 75 μl) were incubated in the presence of test compounds in a 384-well filter plate (MultiScreenHTS HV Filter Plate, 0.45 μm, MZHVNOW50, Merck Millipore). Each plate contained 16 positive (100 μM Compound B) and 16 negative (2% v/v DMSO) control wells. Compounds were tested in a concentration-response applying 1:3 or 1:4 dilution steps for in total 11 data points. DMSO concentration was 2% (v/v). After 2 h incubation on an overhead shaker (Roto-Shake Genie, Scientific Industries Inc.) at 4° C. the non-bound fraction was removed by washing the beads with DP buffer. Proteins retained on the beads were eluted in SDS sample buffer (200 mM Tris (pH 7.4), 250 mM Trizma Base, 4% (w/v) SDS, 20% (v/v) glycerol, 0.01% (w/v) bromophenol blue, 50 mM dithiothreitol) into a collection plate (384 well polypropylene microplate, V-shape, Greiner, 781 280). Eluates were spotted on nitrocellulose membranes (400 nl per spot) using an automated pin-tool liquid transfer (Biomek FX, Beckman). After drying, the membranes were rehydrated in 20% (v/v) ethanol and blocked by incubation with Odyssey blocking buffer (LICOR, 927-40000) for 1 h at room temperature. Blocked membranes were incubated overnight at 25° C. with Odyssey blocking buffer supplemented with a specific anti-mTOR antibody (Cell Signaling, 2972; 1:500) and 0.4% TWEEN-20. Then the membranes were washed in PBST buffer and incubated for 60 minutes at room temperature with the detection antibody (IRDye™ labelled antibody from LI-COR) diluted in Odyssey blocking buffer (LICOR 927-40000) containing 0.2% TWEEN-20. Then the membranes were washed with PBST and finally rinsed twice with PBS buffer to remove residual Tween-20. The membranes were then scanned with the Odyssey® Infrared Imaging System (LI-COR Biosciences). Fluorescence signals were recorded and analyzed according to the instructions of the manufacturer. Concentration response curves were computed with the software Activity Base. All data were normalized to the mean of 16 high (negative control) and 16 low (positive control) control wells on each plate. […]

[1] = bead-immobilized capturing ligand, 2 h at 4° C., mean of multiple experiments, read-out: mean pIC50, mTOR kinobeads assay (converted)
[2] = selected compounds, mean, read-out: mTOR (mean pIC50 values when tested in the mTOR binding assay) (converted)

IC50 [1] | IC50 [2] | SMILES
≤ 0.316 nM |  | CC[C@H]1COCC(=O)N1c1cc(C2(S(C)(=O)=O)CCOCC2)cc(-c2ccc3[nH]c(CO)cc3n2)n1 [Example 26]
≤ 1.26 nM |  | CC[C@H]1COCC(=O)N1c1cc(CS(C)(=O)=O)cc(-c2ccc3[nH]c(CO)cc3n2)n1 [Example 27]
≤ 1.26 nM | 0.501 nM | CC[C@H]1COCC(=O)N1c1cc(CS(C)(=O)=O)cc(-c2ccc3[nH]c(C)cc3n2)n1 [Example 24, (S)-5-ethyl-4-(6-(2-methyl-1H-pyrrolo[3,2-b]pyridin-5-yl)-4-((methylsulfonyl)methyl)pyridin-2-yl)morpholin-3-one]
≤ 1.26 nM | 0.631 nM | CC[C@H]1COCCN1c1cc(CS(=O)(=O)N(C)C)nc(-c2ccc3[nH]c(CNC)cc3n2)n1 [Example 16, 1-{6-[(3S)-3-ethylmorpholin-4-yl]-2-{2-[(methylamino)methyl]-1H-pyrrolo[3,2-b]pyridin-5-yl}pyrimidin-4-yl}-N,N-dimethylmethanesulfonamide]
≤ 1.26 nM |  | CC[C@H]1COCC(=O)N1c1cc(C2(S(C)(=O)=O)CCOCC2)cc(-c2ccc3[nH]c(C)cc3n2)n1 [Example 25, (S)-5-ethyl-4-(6-(2-methyl-1H-pyrrolo[3,2-b]pyridin-5-yl)-4-(4-(methylsulfonyl)tetrahydro-2H-pyran-4-yl)pyridin-2-yl)morpholin-3-one]
≤ 1.26 nM |  | CC[C@H]1COCCN1c1cc(CS(N)(=O)=O)cc(-c2ccc3[nH]c(C)cc3n2)n1 [Example 23, (S)-(2-(3-ethylmorpholino)-6-(2-methyl-1H-pyrrolo[3,2-b]pyridin-5-yl)pyridin-4-yl)methanesulfonamide]
 | 6.31 nM | CC[C@H]1COCCN1c1cc(C2(S(C)(=O)=O)CCNCC2)cc(-c2ccc3[nH]c(C)cc3n2)n1 [Example 18, (S)-3-ethyl-4-(6-(2-methyl-1H-pyrrolo[3,2-b]pyridin-5-yl)-4-(4-(methylsulfonyl)piperidin-4-yl)pyridin-2-yl)morpholine]

The remaining lines, values behind:

SMILES | IC50 [1] | IC50 [2]
CC[C@H]1COCCN1c1cc(C2(S(C)(=O)=O)CCOCC2)nc(-c2ccc3[nH]c(C)cc3n2)n1 [Example 13, (3S)-3-ethyl-4-[6-(4-methanesulfonyloxan-4-yl)-2-{2-methyl-1H-pyrrolo[3,2-b]pyridin-5-yl}pyrimidin-4-yl]morpholine] | ≤ 1.26 nM | 
CC[C@H]1COCC(=O)N1c1cc(CS(C)(=O)=O)nc(-c2ccc3[nH]c(C)cc3n2)n1 [Example 14, (5S)-5-ethyl-4-[6-(methanesulfonylmethyl)-2-{2-methyl-1H-pyrrolo[3,2-b]pyridin-5-yl}pyrimidin-4-yl]morpholin-3-one] | ≤ 0.2 nM | 0.2 nM
CC[C@H]1COCCN1c1cc(CS(C)(=O)=O)nc(-c2ccc3[nH]c(CNC)cc3n2)n1 [Example 1, [(5-{4-[(3S)-3-ethylmorpholin-4-yl]-6-(methanesulfonylmethyl)pyrimidin-2-yl}-1H-pyrrolo[3,2-b]pyridin-2-yl)methyl](methyl)amine] | ≤ 1.26 nM | 0.794 nM
CC[C@H]1COCCN1c1cc(CS(=O)(=O)NC)nc(-c2ccc3[nH]c(CO)cc3n2)n1 [Example 10, 1-{6-[(3S)-3-ethylmorpholin-4-yl]-2-[2-(hydroxymethyl)-1H-pyrrolo[3,2-b]pyridin-5-yl]pyrimidin-4-yl}-N-methylmethanesulfonamide] | ≤ 0.0794 nM | 
CC[C@H]1COCCN1c1cc(CS(C)(=O)=O)nc(-c2ccc3[nH]c(CO)cc3n2)n1 [Example 2, (S)-(5-(4-(3-ethylmorpholino)-6-((methylsulfonyl)methyl)pyrimidin-2-yl)-1H-pyrrolo[3,2-b]pyridin-2-yl)methanol] | ≤ 1.26 nM | 
CC[C@H]1COCCN1c1cc(C2(S(C)(=O)=O)CCOCC2)nc(-c2ccc3[nH]c(CO)cc3n2)n1 [Example 4, (5-{4-[(3S)-3-ethylmorpholin-4-yl]-6-(4-methanesulfonyloxan-4-yl)pyrimidin-2-yl}-1H-pyrrolo[3,2-b]pyridin-2-yl)methanol] | ≤ 1.26 nM | 
CC[C@H]1COCCN1c1cc(CS(=O)(=O)N(C)C)nc(-c2ccc3[nH]c(CO)cc3n2)n1 [Example 9, 1-{6-[(3S)-3-ethylmorpholin-4-yl]-2-[2-(hydroxymethyl)-1H-pyrrolo[3,2-b]pyridin-5-yl]pyrimidin-4-yl}-N,N-dimethylmethanesulfonamide] | ≤ 0.316 nM | 
CC[C@H]1COCCN1c1cc(CS(N)(=O)=O)nc(-c2ccc3[nH]c(CNC)cc3n2)n1 [Example 6, {6-[(3S)-3-ethylmorpholin-4-yl]-2-{2-[(methylamino)methyl]-1H-pyrrolo[3,2-b]pyridin-5-yl}pyrimidin-4-yl}methanesulfonamide] | ≤ 1.26 nM | 
CCc1cc2nc(-c3nc(CS(C)(=O)=O)cc(N4C(=O)COC[C@@H]4CC)n3)ccc2[nH]1 [Example 15, (5S)-5-ethyl-4-(2-{2-ethyl-1H-pyrrolo[3,2-b]pyridin-5-yl}-6-(methanesulfonylmethyl)pyrimidin-4-yl)morpholin-3-one] | ≤ 0.316 nM | 0.316 nM
